Measured values published in US8129527B2, “Analogs of dehydrophenylahistins and their therapeutic use” (Nereus Pharmacuticals, Inc., priority 2006, dated 2012).
Where two headings read alike, the source gives them in different places.

Assays:
[1] = system: P388 murine leukemia cells; assay: Cytotoxic effect in P388 cells; format: cell-based; details: Mus musculus, P388, read-out: IC50 (nM) P-388; Table 2
Excerpt: The cytotoxic effects of phenylahistin, dehydrophenylahistin and various derivatives of dehydrophenylahistin were examined in P388 murine leukemia cells, HT-29 human colon cells, and PC-3 prostatic adenocarcinoma cells.

[2] = system: HT-29 human colon cells; assay: Tumor cytotoxicity assay, resazurin fluorescence, 48 h (Example 6); format: cell-based; details: Homo sapiens
[3] = system: Trichophyton mentagrophytes; assay: Antifungal susceptibility testing, broth dilution (MIC/MFC); format: cell-based; details: in words
Description: Specifically, disclosed compounds were evaluated alongside commercially available microtubulin inhibitors as well as recognized antifungal agents. […].
(§1) Microorganisms against which these compounds were tested included: Candida albicans, Candida glabrata, Aspergillus fumigatus, Trichophyton rubrum, Trichophyton mentagrophytes, Epidermophyton floccosum. With the exception of Candida glabrata (one isolate), two isolates of each species were tested.
Drug concentrations were 0.03-16 μg/ml for the investigational compounds, 0.015-8 μg/ml for itraconazole and griseofulvin.
The minimum lethal concentration (MLC) was determined by plating […] from the MIC concentration and each concentration above the MIC. […] When a MIC was obtained, a minimum fungicidal concentration (MFC) was determined to assess the fungistatic/fungicidal nature of the compound. […] The compound is scored as fungistatic if the cells are able to resume growth and fungicidal if no regrowth is possible because the compound had killed the organisms.

[4] = system: Candida albicans; assay: as above; format: cell-based; details: Candida albicans; C. albicans 90028; read-out: MIC
Description: (§2) Specifically, disclosed compounds were evaluated alongside commercially available microtubulin inhibitors as well as recognized antifungal agents.
as §1
(§3) The minimum lethal concentration (MLC) was determined by plating […] from the MIC concentration and each concentration above the MIC. […] When a MIC was obtained, a minimum fungicidal concentration (MFC) was determined to assess the fungistatic/fungicidal nature of the compound.

[5] = system: Trichophyton rubrum; assay: as above; format: cell-based; details: in words
Description: as §2, §1, §3

[6] = system: Aspergillus fumigatus; assay: as above; format: cell-based; details: Aspergillus fumigatus, read-out: MIC
Description: as §2, §1, §3

[7] = system: Candida glabrata; assay: as above; format: cell-based; details: Nakaseomyces glabratus; C. glabrata; read-out: MIC
Description: as §2, §1, §3

[8] = system: HL-60/MX2 multidrug resistant; assay: Cell growth inhibition assay, resazurin (Example 11); format: cell-based, human; details: for EC50: Homo sapiens, HL60/MX2, HL-60/MX2, mean values of two independent experiments; for cytotoxic activity against both HL-60 and HL-60/MX2: in words; for Fold change: ratio of EC50 values (HL-60/MX2:HL-60)
Description: (§4) Human uterine sarcoma (MES-SA; CRL-1976), its multidrug resistant derivative (MES-SA/Dx5; CRL-1977), human acute promyelocytic leukemia cells (HL-60; CCL-240) and its multidrug resistant derivative (HL-60/MX2; CRL-2257) were purchased from ATCC and maintained in appropriate culture media. The cells were cultured in an incubator at 37° C. in 5% CO2 and 95% humidified air.
(§5) For cell growth inhibition assays, MES-SA and MES-SA/Dx5 cells were both seeded at 3×10^3 cells/well in 90 μl complete media into 96 well (Corning; 3904) black-walled, clear-bottom tissue culture plates and the plates were incubated overnight to allow cells to establish and enter log phase growth. HL-60 and HL-60/MX2 cells were both seeded at 5×10^4 cells/well in 90 μl complete media into 96 well plates on the day of compound addition. 20 mM stock solutions of the compounds were prepared in 100% DMSO and stored at −80° C. […] Ten μl volumes of the 10× serial dilutions were added to the test wells in triplicate and the plates returned to the incubator for 48 hours. The final concentration of DMSO was 0.25% in all samples.
(§6) Following 48 hours of drug exposure, 10 μl of 0.2 mg/ml resazurin (obtained from Sigma-Aldrich Chemical Co.) in Mg^2+, Ca^2+ free phosphate buffered saline was added to each well and the plates were returned to the incubator for 3-6 hours. […] Resazurin dye in medium without cells was used to determine the background, which was subtracted from the data for all experimental wells.
(§7) HL-60/MX2 is a multidrug resistant tumor cell line derived from the human promyelocytic leukemia cell line, HL-60 and expresses reduced topoisomerase II activity. The data presented in Table 20 summarize the growth inhibitory effects of NPI-2421, NPI-2463, NPI-2503, NPI-2504 and NPI-2506 against HL-60 and its multidrug resistant derivative HL-60/MX2. Mitoxantrone, the topoisomerase II targeting agent was included as a control.

[9] = system: MES-SA/Dx5 multidrug resistant; assay: as above; format: cell-based, human; details: for EC50: Homo sapiens, MES-SA/Dx5, mean ± standard deviation of three independent experiments; for cytotoxic activity against both MES-SA and MES-SA/Dx5: in words; for Fold change: ratio of EC50 values (MES-SA/Dx5:MES-SA)
Description: as §4, §5, §6
(§8) The multidrug resistant MES-SA/Dx5 tumor cell line was derived from the human uterine sarcoma MES-SA tumor cell line and expresses elevated P-Glycoprotein (P-gp), an ATP dependent efflux pump. The data in Table 19 summarize the growth inhibitory effects of NPI-2421, NPI-2463, NPI-2503, NPI-2504 and NPI-2506 against MES-SA and its multidrug resistant derivative MES-SA/Dx5. Paclitaxel, a known substrate of the P-gp pump was included as a control.

[10] = system: HL-60 human acute promyelocytic leukemia cells; assay: as above; format: cell-based; details: mean values of two independent experiments
Description: as §4, §5, §6, §7

[11] = system: HT-29 human colorectal carcinoma cells; assay: Cell growth inhibition assay, resazurin (Table 3.2); format: cell-based; details: Table 3.2, HT-29 cells, read-out: EC50 (M) Mean
Description: The cytotoxic effects of various derivatives of dehydrophenylahistin against HT-29 human colorectal carcinoma cells were determined.
HT-29 cells (ATCC; HTB-38) were maintained in ATCC recommended culture media and cultured in an incubator at 37° C. in 5% CO2 and 95% humidified air.
For cell growth inhibition assays, HT-29 cells were seeded at 5×10^3 cells/well in 90 μl complete media into a Corning 3904 black-walled, clear-bottom tissue culture plates and the plates were incubated overnight to allow cells to establish and enter log phase growth. 20 mM stock solutions of compounds were prepared in 100% DMSO and stored at −80° C. 10× concentrated serial dilutions of the compounds were prepared in culture medium for final concentrations ranging from 20 μM to […]. Ten μl volumes of the 10× serial dilutions were added to the test wells in triplicate and the plates returned to the incubator for 48 hours. The final concentration of DMSO was 0.25% in all samples.
Following 48 hours of drug exposure, 10 μl of 0.2 mg/ml resazurin (obtained from Sigma-Aldrich Chemical Co.) in Mg^2+, Ca^2+ free phosphate buffered saline was added to each well and the plates were returned to the incubator for 3-4 hours. […] Resazurin dye in medium without cells was used to determine the background, which was subtracted from the data for all experimental wells.

[12] = system: MDA-MB-231 breast adenocarcinoma; assay: Cell growth inhibition assay, resazurin (Example 11); format: cell-based; details: Homo sapiens, 48 hours, mean ± SD where n ≧ 3
Description: (§9) The growth inhibitory activity of NPI-2421, NPI-2463, NPI-2503 and NPI-2504 were determined against selected human (colorectal adenocarcinoma, HT-29; breast adenocarcinoma, MDA-MB-231; non-small cell lung carcinoma, NCI-H292 and prostate carcinomas, PC-3 and DU 145) and mouse (melanoma, B16-F10) tumor cell lines.
(§10) HT-29 (HTB-38), MDA-MB-231 (HTB-26), NCI-H292 (CRL-1848), B16-F10 (CRL-6475), PC-3 (CRL-1435) and DU 145 (HTB-81) cells were all purchased from the ATCC. The cell lines were maintained in their respective ATCC recommended culture media and cultured in an incubator at 37° C. in 5% CO2 and 95% humidified air.
(§11) 20 mM stock solutions of compounds were prepared in 100% DMSO and stored at −80° C. 10× concentrated serial dilutions of the compounds were prepared in B16-F10 cell culture medium for final concentrations ranging from 20 μM to […]. Ten μl volumes of the 10× serial dilutions were added to the test wells in triplicate and the plates returned to the incubator for 48 hours. The final concentration of DMSO was 0.25% in all samples.
as §6

[13] = system: B16-F10 melanoma; assay: as above; format: cell-based; details: Mus musculus, 48 hours, mean ± SD where n ≧ 3
Description: as §9, §10, §11, §6

[14] = system: NCI-H292 non-small cell lung carcinoma; assay: as above; format: cell-based; details: Homo sapiens, 48 hours, mean ± SD where n ≧ 3, ** n = 1
Description: as §9, §10, §11, §6

[15] = system: PC-3 prostate carcinoma; assay: as above; format: cell-based; details: Homo sapiens, 48 hours, mean ± SD where n ≧ 3, ** n = 1
Description: as §9, §10, §11, §6

[16] = system: HT-29 colorectal adenocarcinoma; assay: as above; format: cell-based; details: Homo sapiens, 48 hours, mean ± SD where n ≧ 3
Description: as §9, §10, §11, §6

[17] = system: MES-SA human uterine sarcoma; assay: as above; format: cell-based; details: mean ± standard deviation of three independent experiments
Description: as §4, §5, §6, §8

[18] = system: HT-29 human colorectal carcinoma cells; assay: Cytotoxic effect against HT-29 cells (Table 30); format: cell-based
Description: The following additional dehydrophenylahistin derivatives were synthesized according to the methods described herein and their cytotoxic effect against HT-29 human colorectal carcinoma cells were determined.

[19] = system: PC-3 prostatic adenocarcinoma cells; assay: Tumor cytotoxicity assay, resazurin fluorescence, 48 h (Example 6); format: cell-based, human; details: Homo sapiens, read-out: EC50 (nM) PC-3
Description: 10× concentrated serial dilutions of the two compounds were prepared in appropriate culture medium for final concentrations ranging from 2.0×10^−5 M to 2.0×10^−10 M. Ten μl volumes of the 10× serial dilutions were added to the test wells in triplicate and the plates returned to the incubator for 48 hours.
Following 48 hours of drug exposure 10 μl of 0.2 mg/ml resazurin (obtained from Sigma-Aldrich Chemical Co.) in Mg^2+, Ca^2+ free PBS was added to each well and the plates were returned to the incubator for 3-4 hours. […] Resazurin dye without cells was used to determine the background, which was subtracted from the data for all experimental wells. The data were analyzed using Prism software (GraphPad Software).
PC-3, a human prostate adenocarcinoma, was maintained in F12K complete medium (F12K medium supplemented with 10% FBS; 2 mM Glutamine; 1% HEPES; and Pen/Strep at 100 IU/ml and 100 µg/ml, respectively).

[20] = HT-29 cells, read-out: EC50 (M) Mean

## C=CC(C)(C)c1[nH]cnc1/C=C1\NC(=O)[C@H](Cc2ccccc2)NC1=O [(−)-Phenylahistin, reference compound]
[1]
  IC50: 833 ± 153 nM
[2]; HT-29, Table 2, read-out: EC50 (nM) HT-29
  EC50: 1600 nM
[3]
  antifungal potency versus the sensitive T. mentagrophytes isolate: weaker but more comparable to the others
[4]
  MIC: > 70 µg/mL
[5]
  antifungal potency versus T. rubrum: significantly less potent than the other compounds
[6]; A. fumigatus isolate #1
  MIC: > 16 µg/mL
[6]; A. fumigatus isolate #2
  MIC: > 16 µg/mL
[7]
  MIC: > 70 µg/mL

## CC(C)(C)c1ocnc1/C=c1\[nH]c(=O)/c(=C/c2cc(F)cc(F)c2F)[nH]c1=O [Compound 2503, tBu-oxadelta-PLH-2,3,5-trifluoro]
[8]
  EC50: 19 nM
  cytotoxic activity against both HL-60 and HL-60/MX2: retained cytotoxic activity
  Fold change: 0.7
[9]
  EC50: 13 ± 3 nM
  cytotoxic activity against both MES-SA and MES-SA/Dx5: retained equivalent cytotoxic activity
  Fold change: 1.0
[10]
  EC50: 28 nM
[11]
  EC50: 1.14e-08 M
[12]
  EC50: 21 nM
[13]
  EC50: 16 ± 2 nM
[14]
  EC50: 52 nM
[15]
  EC50: > 2000 nM
[16]
  EC50: 17 nM
[17]
  EC50: 13 ± 3 nM

## CC(C)(C)c1ocnc1/C=c1\[nH]c(=O)/c(=C/c2cccc(C(=O)c3ccc(CN)cc3)c2)[nH]c1=O [Compound 2534]
[18]; HT-29, read-out: EC50 (M) Mean
  EC50: 5.3e-07 M

## CC(C)(C)c1ocnc1/C=c1\[nH]c(=O)/c(=C/c2cccc(C(N)=O)c2)[nH]c1=O [Compound 2533]
[18]; [20]
  EC50: 1.8e-06 M

## CC(C)(C)c1[nH]cnc1/C=c1\[nH]c(=O)/c(=C/c2ccccc2)[nH]c1=O [tBu-ΔPLH]
[19]
  EC50: 1 nM
[2]; HT-29, read-out: EC50 (nM) HT29, Table 1
  EC50: 13 nM

## CC(C)(C)c1[nH]cnc1/C=c1\[nH]c(=O)/c(=C/c2cccc(C(N)=O)c2)[nH]c1=O [Compound 2529]
[18]; HT-29, read-out: EC50 (M) Mean
  EC50: 5e-06 M

## COC(=O)c1cccc(/C=c2\[nH]c(=O)/c(=C/c3nc[nH]c3C(C)(C)C)[nH]c2=O)c1 [Compound 2527]
[18]; HT-29, read-out: EC50 (M) Mean
  EC50: 1.9e-07 M

## CC(C)(C)c1[nH]cnc1/C=c1\[nH]c(=O)/c(=C/c2cccc(C(=O)O)c2)[nH]c1=O [Compound 2528]
[18]; [20]
  EC50: > 2e-05 M

## CC(C)(C)c1ocnc1/C=c1\[nH]c(=O)/c(=C/c2c(F)ccc(F)c2F)[nH]c1=O [Compound 2506, tBu-oxadelta-PLH-2,3,6-trifluoro]
[8]
  EC50: 31 nM
  cytotoxic activity against both HL-60 and HL-60/MX2: retained cytotoxic activity
  Fold change: 1.0
[9]
  EC50: 27 ± 6 nM
  cytotoxic activity against both MES-SA and MES-SA/Dx5: retained equivalent cytotoxic activity
  Fold change: 1.2
[10]
  EC50: 32 nM
[11]
  EC50: 2.4e-08 M
[17]
  EC50: 22 ± 3 nM

## CC(C)(C)c1[nH]cnc1/C=c1\[nH]c(=O)/c(=C/c2cccc(OP(=O)(O)O)c2)[nH]c1=O [Compound 2521]
[18]; HT-29, read-out: EC50 (M) Mean
  EC50: 2.8e-07 M
